# Assay results: patent publication US8551999B2, “Heterocyclic compound and pharmaceutical composition thereof” (Otsuka Pharmaceutical Co., Ltd., priority 2007, dated 2013)
row,Structure (SMILES),melting point
1,"Br.CCOc1ccc(CN2CCN(C(=O)c3cc4ccc(Oc5ccc(N(C)C(=O)c6ccc(C(F)(F)F)cc6)cn5)cc4n3C)CC2)cc1 [Example 419, N-(6-{2-[4-(4-Ethoxybenzyl)piperazine-1-carbonyl]-1-methyl-1H-indol-6-yloxy}pyridin-3-yl)-N-methyl-4-trifluoromethylbenzamide hydrobromide]",241 to 243 °C
2,"Br.CN(C(=O)c1ccc(C(F)(F)F)cc1)c1ccc(Oc2ccc3cc(C(=O)N4CCN(Cc5ccc(OC(F)F)cc5)CC4)n(C)c3c2)nc1 [Example 422, N-(6-{2-[4-(4-Difluoromethoxybenzyl)piperazine-1-carbonyl]-1-methyl-1H-indol-6-yloxy}pyridin-3-yl)-N-methyl-4-trifluoromethyl-benzamide hydrobromide]",229 to 230 °C
3,"CCOc1ccc(CN2CCN(C(=O)c3cc4cc(Oc5ccc(N(C)C(=O)c6ccc(C(F)(F)F)cc6)cn5)ccc4n3C)CC2)cn1.O=C(O)/C=C\C(=O)O [Example 423, N-(6-{2-[4-(6-Ethoxypyridin-3-ylmethyl)piperazine-1-carbonyl]-1-methyl-1H-indol-5-yloxy}pyridin-3-yl)-N-methyl-4-trifluoromethyl-benzamide maleate]",149 to 151 °C
4,"Br.Cc1c(Oc2ccc(N(C)C(=O)c3ccc(C(F)(F)F)cc3)cn2)ccc2c1cc(C(=O)N1CCN(Cc3ccc(C#N)cc3)CC1)n2C [Example 425, N-(6-{2-[4-(4-Cyanobenzyl)piperazine-1-carbonyl]-1,4-dimethyl-1H-indol-5-yloxy}pyridin-3-yl)-N-methyl-4-trifluoromethylbenzamide hydrobromide]",249 to 252 °C
5,"COc1ccc(CN2CCN(C(=O)c3cc4c(C)c(Oc5ccc(N(C)C(=O)c6ccc(C(F)(F)F)cc6)cn5)ccc4n3C)CC2)cc1 [Example 426, N-(6-{2-[4-(4-Methoxybenzyl)piperazine-1-carbonyl]-1,4-dimethyl-1H-indol-5-yloxy}pyridin-3-yl)-N-methyl-4-trifluoromethyl-benzamide]",184 to 186 °C
6,"Br.CCOc1ccc(CN2CCN(C(=O)c3cc4c(C)c(Oc5ccc(N(C)C(=O)c6ccc(C(F)(F)F)cc6)cn5)ccc4n3C)CC2)cc1 [Example 427, N-(6-{2-[4-(4-Ethoxybenzyl)piperazine-1-carbonyl]-1,4-dimethyl-1H-indol-5-yloxy}pyridin-3-yl)-N-methyl-4-trifluoromethyl-benzamide hydrobromide]",224 to 226 °C
7,"Br.CC(C)c1ccc(CN2CCN(C(=O)c3cc4ccc(Oc5ccc(N(C)C(=O)c6ccc(C(F)(F)F)cc6)cn5)cc4n3C)CC2)cc1 [Example 429, N-(6-{2-[4-(4-Isopropylbenzyl)piperazine-1-carbonyl]-1-methyl-1H-indol-6-yloxy}pyridin-3-yl)-N-methyl-4-trifluoromethylbenzamide hydrobromide]",255 to 258 °C
8,"Br.CC(C)Cc1ccc(CN2CCN(C(=O)c3cc4ccc(Oc5ccc(N(C)C(=O)c6ccc(C(F)(F)F)cc6)cn5)cc4n3C)CC2)cc1 [Example 430, N-(6-{2-[4-(4-Isobutylbenzyl)piperazine-1-carbonyl]-1-methyl-1H-indol-6-yloxy}pyridin-3-yl)-N-methyl-4-trifluoromethylbenzamide hydrobromide]",262 to 265 °C

# Next, values leading:
row,melting point,Structure (SMILES)
1,255 to 257 °C,"Br.CCCc1ccc(CN2CCN(C(=O)c3cc4ccc(Oc5ccc(N(C)C(=O)c6ccc(C(F)(F)F)cc6)cn5)cc4n3C)CC2)cc1 [Example 431, N-Methyl-N-(6-{1-methyl-2-[4-(4-propylbenzyl)piperazine-1-carbonyl]-1H-indol-6-yloxy}pyridin-3-yl)-4-trifluoromethyl-benzamide hydrobromide]"
2,211 to 212 °C,"Br.Br.CN(C(=O)c1ccc(C(F)(F)F)cc1)c1ccc(Oc2ccc3c(c2)cc(C(=O)N2CCN(Cc4ccc(OCC(F)(F)F)cc4)CC2)n3C)nc1 [Example 432, N-Methyl-N-[6-(1-methyl-2-{4-[4-(2,2,2-trifluoroethoxy)benzyl]-piperazine-1-carbonyl}-1H-indol-5-yloxy)pyridin-3-yl]-4-tri-fluoromethylbenzamide dihydrobromide]"
3,144 to 147 °C,"COc1ccc(CN2CCN(C(=O)c3cc4cc(Oc5cc(C)c(NC(=O)c6ccc(C(F)(F)F)cc6)cn5)ccc4n3C)CC2)cc1.O=C(O)C(=O)O [Example 433, N-(6-{2-[4-(4-Methoxybenzyl)piperazine-1-carbonyl]-1-methyl-1H-indol-5-yloxy}-4-methylpyridin-3-yl)-4-trifluoromethylbenzamide oxalate]"
4,204 to 208 °C,"Br.CCCOc1ccc(CN2CCN(C(=O)c3cc4c(C)c(Oc5ccc(N(C)C(=O)c6ccc(C(F)(F)F)cc6)cn5)ccc4n3C)CC2)cc1 [Example 434, N-(6-{1,4-Dimethyl-2-[4-(4-propoxybenzyl)piperazine-1-carbonyl]-1H-indol-5-yloxy}pyridin-3-yl)-N-methyl-4-trifluoromethyl-benzamide hydrobromide]"
5,215.3 to 216.6 °C,"Br.CN(C(=O)c1ccc(C(F)(F)F)cc1)c1ccc(Oc2ccc3cc(C(=O)N4CCN(Cc5ccc(OCCF)cc5)CC4)n(C)c3c2)nc1 [Example 438, N-[6-(2-{4-[4-(2-Fluoroethoxy)benzyl]piperazine-1-carbonyl}-1-methyl-1H-indol-6-yloxy)pyridin-3-yl]-N-methyl-4-trifluoromethyl-benzamide hydrobromide]"
6,155.7 to 156.9 °C,"CN(C(=O)c1ccc(C(F)(F)F)cc1)c1ccc(Oc2ccc3c(c2)cc(C(=O)N2CCN(Cc4ccc5c(c4)OC(F)(F)O5)CC2)n3C)nc1.O=C(O)C(=O)O [Example 439, N-(6-{2-[4-(2,2-Difluorobenzo[1,3]dioxol-5-ylmethyl)piperazine-1-carbonyl]-1-methyl-1H-indol-5-yloxy}pyridin-3-yl)-N-methyl-4-tri-fluoromethylbenzamide oxalate]"
7,243.3 to 245.1 °C,"Br.CN(C(=O)c1ccc(C(F)(F)F)cc1)c1ccc(Oc2ccc3cc(C(=O)N4CCN(Cc5ccc6c(c5)OC(F)(F)O6)CC4)n(C)c3c2)nc1 [Example 440, N-(6-{2-[4-(2,2-Difluorobenzo[1,3]dioxol-5-ylmethyl)piperazine-1-carbonyl]-1-methyl-1H-indol-6-yloxy}pyridin-3-yl)-N-methyl-4-tri-fluoromethylbenzamide hydrobromide]"
8,97.9 to 99.5 °C,"Cc1c(Oc2ccc(N(C)C(=O)c3ccc(C(F)(F)F)cc3)cn2)ccc2c1cc(C(=O)N1CCN(Cc3ccc4c(c3)OC(F)(F)O4)CC1)n2C [Example 441, N-(6-{2-[4-(2,2-Difluorobenzo[1,3]dioxol-5-ylmethyl)piperazine-1-carbonyl]-1,4-dimethyl-1H-indol-5-yloxy}pyridin-3-yl)-N-methyl-4-trifluoromethylbenzamide]"
9,245.4 to 247.6 °C,"Br.CN(C(=O)c1ccc(C(F)(F)F)cc1)c1ccc(Oc2ccc3cc(C(=O)N4CCN(Cc5ccc(OC(F)(F)C(F)F)cc5)CC4)n(C)c3c2)nc1 [Example 443, N-Methyl-N-[6-(1-methyl-2-{4-[4-(1,1,2,2-tetrafluoroethoxy)-benzyl]piperazine-1-carbonyl}-1H-indol-6-yloxy)pyridin-3-yl]-4-trifluoromethylbenzamide hydrobromide]"
